Assay results reported in patent publication US20250302783A1, “SYMPATHETIC NERVE ACTIVATION AGENT AND SYMPATHETIC NERVE ACTIVATION COMPOSITION” (MARUZEN PHARMACEUTICALS CO., LTD., priority 2022, published 2025).

Tests used:
[1] = system: distal branches of the sympathetic nerve innervating the right epididymal white adipose tissue; experiment: White adipose tissue sympathetic nerve activity (WAT-SNA) after intragastric administration, Test Example 1; type: in vivo, rat; conditions: urethane-anesthetized male rats, measured for 60 minutes, FIG. 1
Description: The effect of the intragastric administration of the compound represented by Structural Formula (1) on the activity of the sympathetic nerve innervating the white adipose tissue, the brown adipose tissue, the adrenal gland, or the liver was tested in the following manner. For the experiment, male Whistar rats (approximately 9 weeks old) each having a body weight of approximately 300 g were kept in a 24° C. thermostatic animal room for 1 week or longer with a 12-hour light-dark cycle (lighting from 8:00 to 20:00). On the day of the experiment, the rats were fasted for 3 hours, followed by anesthetizing with urethane. A cannula for intragastric administration was inserted into each of the rats, and then distal branches of the sympathetic nerve innervating the right epididymal white adipose tissue, the interscapular brown adipose tissue, the left adrenal gland, or the liver were lifted with a silver electrode, and the electrical activity thereof was measured. […] In addition, as a control, water serving as a solvent was intragastrically administered using the cannula at a dose of 0.5 mL/300 g of body weight, and the change in the neural activity of the distal branches of the above sympathetic nerves was measured electrophysiologically for 60 minutes. […]

[2] = system: distal branches of the sympathetic nerve innervating the liver; experiment: Hepatic sympathetic nerve activity (Hepatic-SNA) after intragastric administration, Test Example 1; type: in vivo, rat; conditions: urethane-anesthetized male rats, measured for 60 minutes, FIG. 4
Description: The effect of the intragastric administration of the compound represented by Structural Formula (1) on the activity of the sympathetic nerve innervating the white adipose tissue, the brown adipose tissue, the adrenal gland, or the liver was tested in the following manner. For the experiment, male Whistar rats (approximately 9 weeks old) each having a body weight of approximately 300 g were kept in a 24° C. thermostatic animal room for 1 week or longer with a 12-hour light-dark cycle (lighting from 8:00 to 20:00). On the day of the experiment, the rats were fasted for 3 hours, followed by anesthetizing with urethane. A cannula for intragastric administration was inserted into each of the rats, and then distal branches of the sympathetic nerve innervating the right epididymal white adipose tissue, the interscapular brown adipose tissue, the left adrenal gland, or the liver were lifted with a silver electrode, and the electrical activity thereof was measured. When the measurement value stabilized (at approximately 13:00), an aqueous solution of the compound represented by Structural Formula (1) (produced by Tokyo Chemical Industry Co., Ltd.) was intragastrically administered using the cannula at a dose of 15 mg/0.5 mL/300 g of body weight, 1.5 mg/0.5 mL/300 g of body weight, 0.15 mg/0.5 mL/300 g of body weight, or 0.015 mg/0.5 mL/300 g of body weight, and the change in the neural activity of the distal branches of the above sympathetic nerves was measured electrophysiologically for 60 minutes. In addition, as a control, water serving as a solvent was intragastrically administered using the cannula at a dose of 0.5 mL/300 g of body weight, and the change in the neural activity of the distal branches of the above sympathetic nerves was measured electrophysiologically for 60 minutes. […] The data of the neural activity was analyzed as the mean value of the firing rate per 5 seconds (pulse/5 s) every 5 minutes, and represented by a percentage relative to the mean value (a value at 0 minutes) at 5 minutes before the onset of stimulation being determined as 100%. […]

[3] = 1.5 mg/0.5 mL/300 g of body weight
[4] = 15 mg/0.5 mL/300 g of body weight

COc1cc(CCC(=O)O)ccc1O [3-(4-hydroxy-3-methoxyphenyl) propionic acid]
change in white adipose tissue sympathetic nerve activity (WAT-SNA) versus water control [1, 3]: higher than the WAT-SNA value of the group to which water serving as the solvent was administered | change in white adipose tissue sympathetic nerve activity (WAT-SNA) versus water control [1, 4]: higher than the WAT-SNA value of the group to which water serving as the solvent was administered | change in hepatic sympathetic nerve activity (Hepatic-SNA) versus water control ([2]; 0.15 mg/0.5 mL/300 g of body weight): higher than the Hepatic-SNA value of the group to which water serving as the solvent was administered | change in hepatic sympathetic nerve activity (Hepatic-SNA) versus water control [2, 3]: higher than the Hepatic-SNA value of the group to which water serving as the solvent was administered | change in hepatic sympathetic nerve activity (Hepatic-SNA) versus water control [2, 4]: higher than the Hepatic-SNA value of the group to which water serving as the solvent was administered
